Patent publication US9765056B2, “Indole and pyrrole compounds, a process for their preparation and pharmaceutical compositions containing them” (LES LABORATOIRES SERVIER, priority 2013, dated 2017)
Counter-ions that a name gives are not always drawn.

How the values were obtained:
[1] = system: RS4;11 leukaemia tumour line; assay: In vitro cytotoxicity, Microculture Tetrazolium Assay (MTT); assay type: cell-based; conditions: Homo sapiens; RS4;11 cells, 48 hours exposure
Method: The cytotoxicity studies were carried out on the RS4;11 leukaemia tumour line.
The cells are distributed onto microplates and exposed to the test compounds for 48 hours. The cell viability is then quantified by a colorimetric assay, the Microculture Tetrazolium Assay (Cancer Res., 1987, 47, 939-942).

Bcl-2 protein = Bcl-2 protein (histag-Bcl-2, UniProtKB P10415) (Homo sapiens (Human), UniProt P10415); assay: Inhibition of Bcl-2 by the fluorescence polarisation technique; assay type: binding; conditions: for IC50: fluorescence polarisation test, method A, or method B where underlined (underlining not visible), read-out: IC50 (nM) Bcl-2 FP
Text: Inhibition of Bcl-2 by the fluorescence polarisation technique

Chain of Bcl-2 protein (P10415 whole entry): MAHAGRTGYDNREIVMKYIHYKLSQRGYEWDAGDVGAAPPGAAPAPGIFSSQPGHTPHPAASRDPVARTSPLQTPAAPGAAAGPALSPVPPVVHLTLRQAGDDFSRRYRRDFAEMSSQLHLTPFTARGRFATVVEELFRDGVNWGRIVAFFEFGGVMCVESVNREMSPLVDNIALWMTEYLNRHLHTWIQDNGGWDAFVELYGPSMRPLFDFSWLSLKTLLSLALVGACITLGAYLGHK

SMILES | IC50 [1] | IC50 (Bcl-2 protein) | inhibition at 22.2 µM (Bcl-2 protein; @22.2 μM test compound, partial inhibitor, read-out: percentage fluorescence polarisation inhibition (Bcl-2 FP))
CN1CCN(C[C@@H]2Cc3ccccc3CN2C(=O)c2cc3c(cc2-n2cc(C(=O)N(c4ccc(O)cc4)c4ccc(O)cc4)c4ccccc42)OCO3)CC1 [Example 41, N,N-bis(4-Hydroxyphenyl)-1-(6-{[(3S)-3-[(4-methylpiperazin-1-yl)-methyl]-3,4-dihydroisoquinolin-2(1H)-yl]carbonyl}-1,3-benzodioxol-5-yl)-1H-indole-3-carboxamide] | 52.2 nM | 3.7 nM | –
Cc1cc(C(=O)N(c2ccc(O)cc2)c2ccc3c(ccn3C)c2)cn1-c1cc2occc2cc1C(=O)N1Cc2ccccc2C[C@H]1CN1CCOCC1 [Example 119, N-(4-Hydroxyphenyl)-5-methyl-N-(1-methyl-1H-indol-5-yl)-1-(5-{[(3S)-3-(morpholin-4-ylmethyl)-3,4-dihydroisoquinolin-2(1H)-yl]carbonyl}-1-benzofuran-6-yl)-1H-pyrrole-3-carboxamide hydrochloride] | 96.4 nM | 28.4 nM | –
Cc1cc(C(=O)N(c2ccccc2)c2ccc(O)cc2)cn1-c1ccc(Cl)cc1C(=O)N1Cc2ccccc2C[C@H]1CN1CCN(C)CC1 [Example 25, 1-(4-Chloro-2-{[(3S)-3-[(4-methylpiperazin-1-yl)methyl]-3,4-dihydroisoquinolin-2(1H)-yl]carbonyl}phenyl)-N-(4-hydroxyphenyl)-5-methyl-N-phenyl-1H-pyrrole-3-carboxamide] | 1100 nM | 87.6 nM | –
Cc1cc(C(=O)N(c2ccccc2)c2ccc(O)cc2)cn1-c1cc(F)ccc1C(=O)N1Cc2ccccc2C[C@H]1CN(C)C [Example 14, 1-(2-{[(3S)-3-[(Dimethylamino)methyl]-3,4-dihydroisoquinolin-2(1H)-yl]carbonyl}-5-fluorophenyl)-N-(4-hydroxyphenyl)-5-methyl-N-phenyl-1H-pyrrole-3-carboxamide] | 1270 nM | 24.8 nM | –
O=C(c1cn(-c2cc(Cl)ccc2C(=O)N2Cc3ccccc3C[C@H]2CN2CCOCC2)c2ccccc12)N(c1ccccc1)c1ccc(O)cc1 [Example 186, 1-{5-Chloro-2-[(3S)-3-(morpholin-4-ylmethyl)-1,2,3,4-tetrahydroisoquinoline-2-carbonyl}phenyl]-N-(4-hydroxyphenyl)-N-phenyl-1H-indole-3-carboxamide hydrochloride] | 626 nM | 23.5 nM | –
Cc1cc(C(=O)N(c2ccccc2)c2ccccc2)cn1-c1ccccc1C(=O)N1Cc2ccccc2C[C@H]1CN [Example 5, 1-(2-{[(3S)-3-(Aminomethyl)-3,4-dihydroisoquinolin-2(1H)-yl]-carbonyl}phenyl)-5-methyl-N,N-diphenyl-1H-pyrrole-3-carboxamide trifluoroacetate] | 2590 nM | 213 nM | –
Cc1ccc(N(C(=O)c2cc(C)n(-c3cc4c(cc3C(=O)N3Cc5ccccc5C[C@H]3CN3CCN(C)CC3)OCO4)c2)c2ccc(O)cc2)cc1 [Example 96, N-(4-Hydroxyphenyl)-5-methyl-N-(4-methylphenyl)-1-(6-{[(3S)-3-[(4-methylpiperazin-1-yl)methyl]-3,4-dihydroisoquinolin-2(1H)-yl]carbonyl}-1,3-benzodioxol-5-yl)-1H-pyrrole-3-carboxamide] | 157 nM | 3.9 nM | –
Cc1cc(C(=O)N(c2ccc(O)cc2)c2ccc3c(c2)CCN3)cn1-c1cc2c(cc1C(=O)N1Cc3ccccc3C[C@H]1CN1CCN(C)CC1)OCO2 [Example 103, N-(2,3-Dihydro-1H-indol-5-yl)-N-(4-hydroxyphenyl)-5-methyl-1-(6-{[(3S)-3-[(4-methylpiperazin-1-yl)methyl]-3,4-dihydroisoquinolin-2(1H)-yl]carbonyl}-1,3-benzodioxol-5-yl)-1H-pyrrole-3-carboxamide hydrochloride] | 523 nM | 17.4 nM | –
CN1CCN(C[C@@H]2Cc3ccccc3CN2C(=O)c2cc3c(cc2-n2cc(C(=O)N(c4ccccc4)c4ccc(O)cc4)c4cc(F)ccc42)OCO3)CC1 [Example 195, 5-Fluoro-N-(4-hydroxyphenyl)-1-{6-[(3S)-3-[(4-methylpiperazin-1-yl)methyl]-1,2,3,4-tetrahydroisoquinoline-2-carbonyl]-2H-1,3-benzodioxol-5-yl}-N-phenyl-1H-indole-3-carboxamide] | 507 nM | 31.1 nM | –
Cc1cc(C(=O)N(c2ccc(O)cc2)c2ccc3[nH]ccc3c2)cn1-c1cc(Cl)cc(Cl)c1C(=O)N1Cc2ccccc2C[C@H]1CN1CCN(C)CC1 [Example 92, 1-(3,5-Dichloro-2-{[(3S)-3-[(4-methylpiperazin-1-yl)methyl]-3,4-dihydroisoquinolin-2(1H)-yl]carbonyl}phenyl)-N-(4-hydroxyphenyl)-N-(1H-indol-5-yl)-5-methyl-1H-pyrrole-3-carboxamide] | 202 nM | 9.6 nM | –
NC[C@@H]1Cc2ccccc2CN1C(=O)c1ccc(Cl)cc1-n1cc(C(=O)N(c2ccccc2)c2ccc(O)cc2)c2ccccc21 [Example 156, 1-{2-[(3S)-3-(Aminomethyl)-1,2,3,4-tetrahydroisoquinoline-2-carbonyl]-5-chlorophenyl}-N-(4-hydroxyphenyl)-N-phenyl-1H-indole-3-carboxamide] | 450 nM | 11.7 nM | –
Cc1cc(C(=O)N(c2ccccc2)c2ccc(O)cc2)cn1-c1cc(Br)ccc1C(=O)N1Cc2ccccc2C[C@H]1CN1C[C@H]2CCC[C@H]2C1 [Example 38, 1-(5-Bromo-2-{[(3S)-3-[(3aR,6aS)-hexahydrocyclopenta[c]pyrrol-2(1H)-ylmethyl]-3,4-dihydroisoquinolin-2(1H)-yl]carbonyl}phenyl)-N-(4-hydroxyphenyl)-5-methyl-N-phenyl-1H-pyrrole-3-carboxamide] | 1780 nM | 238 nM | –
CN1CCN(C[C@@H]2Cc3ccccc3CN2C(=O)c2cc(O)c(O)cc2-n2cc(C(=O)N(c3ccccc3)c3ccc(O)cc3)c3ccccc32)CC1 [Example 183, 1-{4,5-Dihydroxy-2-[(3S)-3-[(4-methylpiperazin-1-yl)methyl]-1,2,3,4-tetrahydroisoquinoline-2-carbonyl]phenyl}-N-(4-hydroxyphenyl)-N-phenyl-1H-indole-3-carboxamide] | – | 8.3 nM | –
COc1cc(-n2cc(C(=O)N(c3ccccc3)c3ccc4[nH]ccc4c3)c3ccccc32)c(C(=O)N2Cc3ccccc3C[C@H]2CN2CCN(C)CC2)cc1O [Example 198, 1-{4-Hydroxy-5-methoxy-2-[(3S)-3-[(4-methylpiperazin-1-yl)methyl]-1,2,3,4-tetrahydroisoquinoline-2-carbonyl]phenyl}-N-(1H-indol-5-yl)-N-phenyl-1H-indole-3-carboxamide] | 616 nM | 3.4 nM | –
Cc1cc(C(=O)N(c2ccc(O)cc2)c2ccc3c(ccn3C)c2)cn1-c1cc(Cl)ccc1C(=O)N1Cc2ccccc2C[C@H]1CN1CCN(C)CC1 [Example 89, 1-(5-Chloro-2-{[(3S)-3-[(4-methylpiperazin-1-yl)methyl]-3,4-dihydroisoquinolin-2(1H)-yl]carbonyl}phenyl)-N-(4-hydroxyphenyl)-5-methyl-N-(1-methyl-1H-indol-5-yl)-1H-pyrrole-3-carboxamide] | 59.8 nM | 4.2 nM | –
Cc1cc(C(=O)N(c2ccccc2)c2ccc(O)cc2)cn1-c1cc(Br)ccc1C(=O)N1Cc2ccccc2C[C@H]1CN1CCOCC1 [Example 42, 1-(5-Bromo-2-{[(3S)-3-(morpholin-4-ylmethyl)-3,4-dihydroisoquinolin-2(1H)-yl]carbonyl}phenyl)-N-(4-hydroxyphenyl)-5-methyl-N-phenyl-1H-pyrrole-3-carboxamide] | 353 nM | 23.1 nM | –
CN1CCN(C[C@@H]2Cc3ccccc3CN2C(=O)c2ccc(Cl)cc2-n2cc(C(=O)N(c3ccccc3)c3ccc(O)cc3)c3ccccc32)CC1 [Example 159, 1-{5-Chloro-2-[(3S)-3-[(4-methylpiperazin-1-yl)methyl]-1,2,3,4-tetrahydroisoquinoline-2-carbonyl]phenyl}-N-(4-hydroxyphenyl)-N-phenyl-1H-indole-3-carboxamide] | 191 nM | 10.2 nM | –
Cc1cc(C(=O)N(c2ccc(O)cc2)c2ccc3[nH]ccc3c2)cn1-c1cc(Br)ccc1C(=O)N1Cc2ccccc2C[C@H]1CN1CCCC1 [Example 104, 1-(5-Bromo-2-{[(3S)-3-(pyrrolidin-1-ylmethyl)-3,4-dihydroisoquinolin-2(1H)-yl]carbonyl}phenyl)-N-(4-hydroxyphenyl)-N-(1H-indol-5-yl)-5-methyl-1H-pyrrole-3-carboxamide] | 383 nM | 18.8 nM | –
COc1cc(-n2cc(C(=O)N(c3ccccc3)c3ccc(O)cc3)c3ccccc32)c(C(=O)N2Cc3ccccc3C[C@H]2CN2CCN(C)CC2)cc1O [Example 165, 1-{4-Hydroxy-5-methoxy-2-[(3S)-3-[(4-methylpiperazin-1-yl)methyl]-1,2,3,4-tetrahydroisoquinoline-2-carbonyl}phenyl]-N-(4-hydroxyphenyl)-N-phenyl-1H-indole-3-carboxamide dihydrochloride] | 179 nM | 3.2 nM | –
COc1cc(-n2nc(C(=O)N(c3ccccc3)c3ccccc3)c3ccccc32)c(C(=O)N2Cc3ccccc3C[C@H]2CN)cc1OCc1ccccc1 [Example 134, 1-{2-[(3S)-3-(Aminomethyl)-1,2,3,4-tetrahydroisoquinoline-2-carbonyl]-4-(benzyloxy)-5-methoxyphenyl}-N,N-diphenyl-1H-indazole-3-carboxamide] | 2100 nM | – | 72.1%
NC[C@@H]1Cc2ccccc2CN1C(=O)c1ccccc1-n1nc(C(=O)N(c2ccccc2)c2ccccc2)c2ccc(C(=O)O)cc21 [Example 133, 1-{2-[(3S)-3-(Aminomethyl)-1,2,3,4-tetrahydroisoquinoline-2-carbonyl]-phenyl}-3-(diphenylcarbamoyl)-1H-indazole-6-carboxylic acid] | – | 841 nM | –
